Where two headings read alike, the source gives them in different places.
Experiments:
HCT-116 cells = experiment: cells
Protocol: (§1) Cells were seeded in 96-well microtiter plates and maintained at 37°C and 5% CO2 in drug-free medium before treatment with vehicle alone or elisidepsin at the concentrations and times indicated in the text. For cell survival quantification, a colorimetric assay using SRB was used. Briefly, after treatment, cells were washed twice with phosphate buffered saline (PBS), fixed for 25 min in 1% glutaraldehyde solution, rinsed twice with PBS, stained in 0.4% SRB-1% acetic acid solution for 30 min, rinsed several times with 1% acetic acid solution, and air-dried. […] Results are expressed as percentage of control cell survival and represent the mean of at least three independent experiments. IC50, half-maximal inhibitory concentration, was used as a reference value.

[1] = system: HCT-116-Irv cells (elisidepsin-resistant subline); experiment: cells; settings: for IC50: read-out: HCT-116-Irv (IC50), cell growth half-maximal inhibitory concentration; for RR (resistance ratio): fold change between IC50 values from HCT-116-Irv and HCT-116: negative values where HCT-116-Irv is the more sensitive line
Protocol: B16 and GM95 cells were maintained in DMEM with the same supplements and conditions.
as §1

B16 cells = experiment: Cell viability assay (SRB colorimetric); type: cell-based, mouse
Protocol: as §1

[2] = system: GM95 cells (UGCG-deficient B16 mutant); experiment: Cell viability assay (SRB colorimetric); type: cell-based, mouse; settings: for IC50: read-out: GM95 (IC50), cell growth half-maximal inhibitory concentration; for RR: fold change between IC50 values from GM95 and B16: negative values where GM95 is the more sensitive line
Protocol: as §1

Elisidepsin = experiment: FRET or BRET; two-photon FLIM-FRET, phasor analysis, on live HCT-116 cells in Tyrode-glucose buffer; mix of donor Irv-OG488 200 nM, acceptor Irv-A555 800 nM and elisidepsin 3 μM added to the cells; assemblies seen in the plasma membrane
[3] = Homo sapiens, HCT-116, read-out: HCT-116 (IC50), cell growth half-maximal inhibitory concentration
[4] = read-out: HCT-116 (IC50), cell growth half-maximal inhibitory concentration, SRB assay, 96-well, mean of three different experiments, exposure time not given
[5] = SRB assay, 96-well, mean of three different experiments, exposure time not given
[6] = SRB assay, mean of three different experiments, read-out: B16 (IC50), cell growth half-maximal inhibitory concentration
[7] = SRB assay, mean of three different experiments
[8] = Mus musculus, B16, read-out: B16 (IC50), cell growth half-maximal inhibitory concentration

Row | Compound | IC50 (HCT-116 cells; [3]) [nM] | IC50 ([1]; Homo sapiens) [nM] | RR (resistance ratio): fold change between IC50 values from HCT-116-Irv and HCT-116 [1] | RR: fold change between IC50 values from GM95 and B16 [2] | also measured
1 | Nc1ccn([C@@H]2O[C@H](CO)[C@@H](O)C2(F)F)c(=O)n1 [Gemcitabine] | 0.63 | 0.67 | 1.1 | 1.4 | IC50 (B16 cells; Mus musculus, B16, SRB assay, mean of three different experiments, read-out: B16 (IC50), cell growth half-maximal inhibitory concentration): 5.6 nM; IC50 ([2]; Mus musculus, SRB assay, mean of three different experiments): 8.1 nM
2 | CCC1=C[C@@H]2CN(C1)Cc1c([nH]c3ccccc13)[C@@](C(=O)OC)(c1cc3c(cc1OC)N(C)[C@H]1[C@@](O)(C(=O)OC)[C@H](OC(C)=O)[C@]4(CC)C=CCN5CC[C@]31[C@@H]54)C2 [Vinorelbine] | 160 | 190 | 1.1 | – | –
3 | Syringomycin E | – | – | -1.4 | -1.3 | IC50 (HCT-116 cells; [4]): 20000 nM; IC50 [1, 5]: 15000 nM; IC50 (B16 cells; [6]): 11000 nM; IC50 [2, 7]: 9000 nM
4 | CCCCCCCCCCCCCCCCCCOCC(COP(=O)([O-])OCC[N+](C)(C)C)OC (stereo not shown) [Edelfosine] | 29000 | 29000 | 1.0 | – | –
5 | C#Cc1cccc(Nc2ncnc3cc(OCCOC)c(OCCOC)cc23)c1 [Erlotinib] | 32000 | 16000 | – | – | –
6 | COc1cccc2c1C(=O)c1c(O)c3c(c(O)c1C2=O)C[C@@](O)(C(=O)CO)C[C@@H]3O[C@H]1C[C@H](N)[C@H](O)[C@H](C)O1 [Doxorubicin] | 140 | 99 | – | -1.9 | IC50 (B16 cells; [8]): 180 nM; IC50 ([2]; Mus musculus): 94 nM
7 | O=c1[nH]cc(F)c(=O)[nH]1 [5-FU, 5-fluorouracil] | 4000 | 11000 | 2.8 | – | –
8 | Elisidepsin (peptide) | – | – | – | – | FRET efficiency (Elisidepsin): 60%
9 | N.N.[Cl][Pt][Cl] [Cisplatin] | – | – | -2.7 | -2.0 | IC50 (HCT-116 cells; [4]): 9800 nM; IC50 [1, 5]: 3600 nM; IC50 (B16 cells; [6]): 18000 nM; IC50 [2, 7]: 9400 nM
10 | CC(=O)O[C@@]12CO[C@@H]1C[C@H](O)[C@@]1(C)C(=O)[C@H](O)C3=C(C)[C@@H](OC(=O)[C@H](O)[C@@H](NC(=O)OC(C)(C)C)c4ccccc4)C[C@@](O)([C@@H](OC(=O)c4ccccc4)[C@H]21)C3(C)C [Docetaxel] | 2.9 | 1.8 | – | – | –
11 | CN(Cc1cnc2nc(N)nc(N)c2n1)c1ccc(C(=O)N[C@@H](CCC(=O)O)C(=O)O)cc1 [Methotrexate] | 37 | 77 | 2.1 | -1.4 | IC50 (B16 cells; [8]): 500 nM; IC50 ([2]; Mus musculus): 370 nM
12 | CC[C@]1(O)C[C@@H]2CN(CCc3c([nH]c4ccccc34)[C@@](C(=O)OC)(c3cc4c(cc3OC)N(C)[C@H]3[C@@](O)(C(=O)OC)[C@H](OC(C)=O)[C@]5(CC)C=CCN6CC[C@]43[C@@H]65)C2)C1 [Vinblastine] | 0.32 | 0.41 | 1.3 | – | –
13 | C/C(=C\c1csc(C)n1)[C@@H]1C[C@@H]2O[C@]2(C)CCC[C@H](C)[C@H](O)[C@@H](C)C(=O)C(C)(C)[C@@H](O)CC(=O)O1 [Epothilone B] | 2.2 | 3.9 | 1.8 | – | –
14 | CO[C@@]12[C@H](COC(N)=O)C3=C(C(=O)C(C)=C(N)C3=O)N1C[C@@H]1N[C@@H]12 [Mitomycin C] | 330 | 300 | – | -2.3 | IC50 (B16 cells; [8]): 5700 nM; IC50 ([2]; Mus musculus): 2500 nM
15 | CC(=O)O[C@H]1C(=O)[C@@]2(C)[C@H]([C@H](OC(=O)c3ccccc3)[C@]3(O)C[C@H](OC(=O)[C@H](O)[C@@H](NC(=O)c4ccccc4)c4ccccc4)C(C)=C1C3(C)C)[C@]1(OC(C)=O)CO[C@@H]1C[C@@H]2O [Paclitaxel] | 6.9 | 8.3 | 1.2 | 2.2 | IC50 (B16 cells; [8]): 15 nM; IC50 ([2]; Mus musculus): 34 nM
16 | COc1cc([C@@H]2c3cc4c(cc3[C@@H](O[C@@H]3O[C@@H]5CO[C@@H](C)O[C@H]5[C@H](O)[C@H]3O)[C@H]3COC(=O)[C@H]23)OCO4)cc(OC)c1O [Etoposide] | 1200 | 960 | – | – | –
17 | COc1cc2c(c(OC)c1OC)-c1ccc(OC)c(=O)cc1[C@@H](NC(C)=O)CC2 [Colchicine] | 3.9 | 2.8 | – | – | –
18 | C[C@@H]1[C@H](O)[C@@H](C)/C=C/C=C/C=C/C=C/C=C/C=C/C=C/[C@H](O[C@@H]2O[C@H](C)[C@@H](O)[C@H](N)[C@@H]2O)C[C@@H]2O[C@](O)(C[C@@H](O)C[C@@H](O)[C@H](O)CC[C@@H](O)C[C@@H](O)CC(=O)O[C@H]1C)C[C@H](O)[C@H]2C(=O)O [Amphotericin B] | 5200 | 6100 | 1.2 | – | –

Reference: publication PMC4608773, “Elisidepsin Interacts Directly with Glycosylceramides in the Plasma Membrane of Tumor Cells to Induce Necrotic Cell Death” (PLoS ONE, 2015)
